Assay results reported in ChEMBL document CHEMBL1144739, “[6]-gingerol induces Ca2+ mobilization in Madin-Darby canine kidney cells” (2008).
The source made the active and inactive calls. The rule behind the calls is not given here.

Legend:
MDCK [1] = assay: Inhibition of phospholipase C in dog MDCK cells assessed as change in basal intracellular calcium level in presence of U73122; assay type: cell-based; settings: Canis lupus familiaris
MDCK [2] = assay: Inhibition of protein kinase C in dog MDCK cells assessed as change in intracellular calcium level in presence of GF109203 X; assay type: cell-based; settings: Canis lupus familiaris
MDCK [3] = assay: Activation of protein kinase C in dog MDCK cells assessed as change in intracellular calcium level in presence of phorbol myristate acetate; assay type: cell-based; settings: Canis lupus familiaris
MDCK [4] = assay: Increase in drug-induced intracellular calcium level in dog MDCK cells at 10 uM after 250 seconds; assay type: functional, Canis lupus familiaris
MDCK [5] = assay: Increase in drug-induced intracellular calcium level in dog MDCK cells in presence of extracellular calcium; assay type: functional, cell-based; settings: Canis lupus familiaris
MDCK [6] = assay: Increase in drug-induced intracellular calcium level in dog MDCK cells at 0.1 uM; assay type: functional, cell-based; settings: Canis lupus familiaris
MDCK [7] = assay: Inhibition of drug-induced intracellular calcium level in dog MDCK cells at 20 uM in absence of extracellular calcium; assay type: functional, Canis lupus familiaris; design: scale not given: the % may be the effect or the level left
MDCK [8] = assay: Elevation of drug-induced intracellular calcium level in MDCK cells at 1 uM; assay type: functional, Canis lupus familiaris

| SMILES | Activity (MDCK [1]) | Activity (MDCK [2]) | Activity (MDCK [3]) | Activity (MDCK [4]) [nM] | Activity (MDCK [5]) | Activity (MDCK [6]) | Activity (MDCK [7]) [%] | Activity (MDCK [8]) [nM] |
| --- | --- | --- | --- | --- | --- | --- | --- | --- |
| CCCCC[C@H](O)CC(=O)CCc1ccc(O)c(OC)c1 [GINGEROL] | inactive | Active | Active | 295 | Dose-dependent effect | inactive | 78 | – |
| C/C=C(/C)C(=O)O[C@H]1C(C)=C2[C@H]([C@@H]1OC(=O)CCCCCCC)[C@@](C)(OC(C)=O)C[C@H](OC(=O)CCC)[C@@]1(O)[C@H]2OC(=O)[C@@]1(C)O [THAPSIGARGIN] | – | – | – | – | – | – | – | 216 |
